# Laboratory results: PMC10179080, “In Vivo and In Vitro Characterization of Close Analogs of Compound KA-11, a New Antiseizure Drug Candidate” (International Journal of Molecular Sciences, 2023)
# Read-outs that look alike come from different tables or passages of the source.
# Assays:
# [1] = tested on: Calcium Cav1.2 channels (dihydropyridine site, antagonist radioligand); assay: Radioligand binding, Cav1.2 dihydropyridine site; design: species or system rat; details: 10 µM
# Description: (§1) Dysfunction of both sodium and calcium ion channels is known to be one of the crucial reasons behind the pathogenesis of seizures. Consequently, these ion channels are molecular targets for several clinically important ASDs such as lacosamide, lamotrigine, carbamazepine, oxcarbazepine and compounds currently under preclinical and clinical studies. Thus, for KA-228 and KA-232, we tested herein their binding profile toward the aforementioned ion channels at concentrations of 10 and 100 µM (Table 3). […] Apart from in vitro studies focused on explaining the mechanism of action, KA-232 was additionally tested for its interaction with the potassium channel (hERG) which is recognized as one of the most important ‘off-targets’ responsible for harmful arrhythmogenic activity. Thus, the interaction of potential drug candidates with hERG must be excluded at an early stage of development.
# (§2) Binding studies were carried out commercially in Eurofins Laboratories (Poitiers, France or New Taipei City, Taiwan).
# [2] = tested on: tonic–clonic seizures in mice; assay: Maximal electroshock seizure (MES) test; format: in vivo
# Description: (§3) The experiments were conducted on adult male albino Swiss mice weighing 22–26 g. The animals were kept in colony cages under standardized laboratory conditions: natural light–dark cycle 12/12 h, temperature 20–24 °C, air humidity 45–65% and free access to tap water and food (chow pellets). After 7 days of adaptation to laboratory conditions, the animals were randomly assigned to experimental groups consisting of 8 mice. The experimental procedures described herein were approved by the Local Ethics Committee in Lublin, Poland (approval numbers: 71/2020 and 13/2021), and were conducted in accordance with EU Directive 2010/63/EU for animal experiments. All efforts were made to minimize animal suffering and to use only the number of animals necessary to produce reliable scientific data according to the 3Rs rule.
# (§4) All substances (except PTZ and tetracaine hydrochloride dissolved in water for injections) were suspended in a 1% solution of Tween 80 (Sigma-Aldrich, Saint Louis, MO, USA) in water for injections (Baxter, Warszawa, Poland) or 0.9% NaCl. All drugs were injected intraperitoneally (i.p.) 30 min before all seizure models with 1 mL syringes as a single injection, in a volume of 10 mL/kg. The pretreatment time (30 min) before testing for KA-228 and KA-232 was chosen based on the time to peak of maximum anticonvulsant activity of KA-11 from our previous studies.
# The tonic–clonic seizures in mice were evoked by an electric stimulus (an alternating current 25 mA, 50 Hz, maximum output voltage 500 V, 0.2 s) generated by a rodent shocker (Hugo Sachs Elektronik, Freiburg, Germany) and delivered via ear-clip electrodes. […] This experimental procedure has been described in detail in our previous studies.
# (§5) The ED50 or TD50 values for tested substances in the acute animal models of seizures were calculated using the computer log-probit analysis. Subsequently, the ED50 and TD50 values (±SEM) were statistically analyzed using one-way analysis of variance (ANOVA) followed by the post hoc Dunnett’s test for multiple comparisons. Differences among values were considered statistically significant if p < 0.05. GraphPad Prism version 8 for Windows (GraphPad Software, San Diego, CA, USA) was used as a statistical software program. The results obtained from the acute ivPTZ test and grip strength test were evaluated by a Student’s t test. Fisher’s exact probability test was used to analyze protection from tonic forelimb and hindlimb extension in the ivPTZ test.
# Na^+ channel (site 2) = assay: Radioligand binding, Na+ channel (site 2); design: species or system rat
# Description: as §1, §2
# [3] = tested on: seizure susceptibility in mice; assay: Timed ivPTZ seizure threshold test; format: in vivo; details: 50 mg/kg i.p., 30 min before ivPTZ
# Description: as §3
# The timed ivPTZ seizure threshold test was carried out according to the method described by Socała et al.. KA-228 and KA-232 were suspended in a 1% solution of Tween 80 and administered i.p. 30 min before the test. In the experiment with KA-232, two separate control groups were used because the effects of KA-232 at a dose of 50 and 100 mg/kg were determined on different days.
# as §5
# Figure 7 Effects of KA-11, KA-228 and KA-232 on the threshold for the first myoclonic twitch (A), generalized clonus (B) and forelimb tonus (C) in the ivPTZ test in mice. KA-228 and KA-232 were administered i.p., 30 min before seizure induction. Control animals received vehicle. Data are presented as means ± SD (mg/kg PTZ; n = 9–14 animals; the n value varies between groups because some animals were excluded from the study due to unsuccessful catheterization of the vein). The statistical significance for KA-228 and KA-232 was evaluated by a Student’s t test. Data for KA-11 were used from Socała et al. and re-analyzed using one-way ANOVA followed by Dunnett’s post hoc test. * p < 0.05, ** p < 0.01, *** p < 0.001, **** p < 0.0001 vs. the vehicle-treated group (GraphPad Prism 8).
# [4] = tested on: neuromuscular strength in mice; assay: Grip strength test; format: in vivo; details: 50 mg/kg i.p., 30 min before test
# Description: The experiments were conducted on adult male albino Swiss mice weighing 22–26 g. The animals were kept in colony cages under standardized laboratory conditions: natural light–dark cycle 12/12 h, temperature 20–24 °C, air humidity 45–65% and free access to tap water and food (chow pellets). After 7 days of adaptation to laboratory conditions, the animals were randomly assigned to experimental groups consisting of 8 mice. The experimental procedures described herein were approved by the Local Ethics Committee in Lublin, Poland (approval numbers: 71/2020 and 13/2021), and were conducted in accordance with EU Directive 2010/63/EU for animal experiments. All efforts were made to minimize animal suffering and to use only the number of animals necessary to produce reliable scientific data according to the 3Rs rule. The grip strength test was carried out according to the methodology described by Socała et al.. Neuromuscular strength was measured just before the ivPTZ seizure threshold test to limit the number of animals used. The ED50 or TD50 values for tested substances in the acute animal models of seizures were calculated using the computer log-probit analysis. Subsequently, the ED50 and TD50 values (±SEM) were statistically analyzed using one-way analysis of variance (ANOVA) followed by the post hoc Dunnett’s test for multiple comparisons. Differences among values were considered statistically significant if p < 0.05. GraphPad Prism version 8 for Windows (GraphPad Software, San Diego, CA, USA) was used as a statistical software program. The results obtained from the acute ivPTZ test and grip strength test were evaluated by a Student’s t test. Fisher’s exact probability test was used to analyze protection from tonic forelimb and hindlimb extension in the ivPTZ test. Figure 8 Effects of KA-228 and KA-232 on neuromuscular strength in mice. KA-228 and KA-232 were administered i.p., 30 min before the test. Control animals received vehicle. […] The statistical significance was evaluated using the Student’s t test: * p < 0.05 vs. the vehicle-treated group (GraphPad Prism 8).
# Chimney test = details: male, albino Swiss, mouse, in vivo, ip, mice
# Description: as §3
# The chimney test of Boissier et al. was used to quantify the acute adverse-effect potential of KA-228 and KA-232 on motor performance in mice. […]
# The ED50 or TD50 values for tested substances in the acute animal models of seizures were calculated using the computer log-probit analysis. Subsequently, the ED50 and TD50 values (±SEM) were statistically analyzed using one-way analysis of variance (ANOVA) followed by the post hoc Dunnett’s test for multiple comparisons. […] The results obtained from the acute ivPTZ test and grip strength test were evaluated by a Student’s t test. […]
# [5] = tested on: PTZ-induced clonic seizures in mice; assay: scPTZ-induced convulsions; format: in vivo; details: i.p.
# Description: as §3, §4
# The PTZ-induced clonic seizures in mice were determined after sc administration of PTZ at a dose of 100 mg/kg. The animals were administered with increasing doses of KA-228 and KA-232, and the anticonvulsant activity of each drug was evaluated as the ED50 value. This experimental procedure has been described in detail in our previous studies.
# as §5
# [6] = tested on: 6-Hz-induced psychomotor seizures in mice; assay: 6 Hz (32 mA) seizure model; format: in vivo
# Description: as §3, §4
# The 6-Hz-induced psychomotor seizures in mice were evoked by current (6 Hz, 0.2 ms rectangular pulse width, 32 mA, 3 s duration) generated by an S48 Square Pulse Stimulator and CCU1 Constant Current Unit (Grass Technologies, West Warwick, RI, USA). The animals were administered with increasing doses of KA-228 and KA-232, and the anticonvulsant activity of each drug was evaluated as the ED50. This experimental procedure has been described in detail in our previous studies.
# as §5
# [7] = tested on: PTZ-induced clonic seizures in mice; details: i.p.; cited from earlier work
# [8] = tested on: 6-Hz-induced psychomotor seizures in mice; details: i.p.; cited from earlier work
# [9] = tested on: tonic–clonic seizures in mice; details: i.p.; cited from earlier work
# hepatoma HepG2 = assay: Hepatotoxicity, HepG2 cell viability; format: cell-based, human; details: 100× lower concentration than 100 µM
# From the text: The assays and protocols used for evaluating the KA-232 ADME-Tox parameters were similar to those described previously for compound KA-11 [6].
# Figure 9 The effect of KA-232 and the reference drug ketoconazole (KE) on CYP3A4 activity (A). The effect of KA-232 and the reference drug quinidine (QD) on CYP2D6 activity (B). The effect of KA-232 and the reference cytostatic drug doxorubicin (DX) on the HepG2 cell line (C) and the SH-SY5Y cell line (D) viability. Statistical significance (* p < 0.05, **** p < 0.0001) was analyzed by Graph Pad Prism 8 software using one-way ANOVA and Bonferroni’s Multiple Comparison Post Test.
smiles,measurement,setting,value
"CC(C(=O)N1CCN(c2cccc(C(F)(F)F)c2)CC1)N1CCCC1=O (centres unmarked) [KA-228, 1-(1-oxo-1-(4-(3-(trifluoromethyl)phenyl)piperazin-1-yl)propan-2-yl)pyrrolidin-2-one]",melting point,,87.1 to 88.4 °C
same,% Inhibition of Control Specific Binding,[1],8.7%
same,ED50,"[2]; Mus musculus, ip, 30 min before test, read-out: ED50 MES ± SD",92.5 ± 16 mg/kg
same,"TI (TD50/ED50), MES",[2]; i.p.,1.42
same,% Inhibition of Control Specific Binding,Na^+ channel (site 2); 10 µM,−2.9%
same,% Inhibition of Control Specific Binding,Na^+ channel (site 2); 100 µM,15.5%
same,effect on threshold for forelimb tonus,[3],significantly raised
same,effect on threshold for generalized clonus,[3],did not cause any significant changes
same,effect on threshold for the first myoclonic twitch,[3],did not cause any significant changes
same,effect on neuromuscular strength (grip strength),[4],did not produce any significant effects
same,TD50 at 30 min,Chimney test,131 ± 36.2 mg/kg
same,ED50,"[5]; Mus musculus, scPTZ 100 mg/kg, 30 min before test, read-out: ED50 PTZ ± SD",95.4 ± 39.8 mg/kg
same,"TI (TD50/ED50), PTZ",[5]; scPTZ,1.38
same,ED50,"[6]; Mus musculus, ip, 30 min before test, read-out: ED50 6 Hz ± SD",61.8 mg/kg
same,"TI (TD50/ED50), 6 Hz",[6]; i.p.,1.72
same,ED50 6 Hz ± SD,"[6]; i.p., 30 min before test",76.4 ± 40.76 mg/kg
"CCCC(CCC)C(=O)O [VPA, valproic acid, reference compound]",ED50 PTZ ± SD,[7],176.2 ± 81.8 mg/kg
same,"TI (TD50/ED50), PTZ",[7],2.44
same,ED50 6 Hz ± SD,[8],110.5 ± 42.8 mg/kg
same,"TI (TD50/ED50), 6 Hz",[8],3.90
same,ED50 MES ± SD,[9],355.2 ± 108.1 mg/kg
same,"TI (TD50/ED50), MES",[9],1.21
"COc1cccc2c1C(=O)c1c(O)c3c(c(O)c1C2=O)C[C@@](O)(C(=O)CO)C[C@@H]3O[C@H]1C[C@H](N)[C@H](O)[C@H](C)O1 [doxorubicin, reference compound]",HepG2 cell viability,hepatoma HepG2,21 % of control
